Assay results published in article PMC12001207 (The FEBS journal, 2025).

Columns and labels:
Assay type in all cases: cell-based
[1] = target: T1, succinate receptor 1 (SUCNR1) (Homo sapiens, UniProt Q9BXA5); experiment: dynamic mass redistribution, concentration-response
T1 sequence (Q9BXA5 1-334): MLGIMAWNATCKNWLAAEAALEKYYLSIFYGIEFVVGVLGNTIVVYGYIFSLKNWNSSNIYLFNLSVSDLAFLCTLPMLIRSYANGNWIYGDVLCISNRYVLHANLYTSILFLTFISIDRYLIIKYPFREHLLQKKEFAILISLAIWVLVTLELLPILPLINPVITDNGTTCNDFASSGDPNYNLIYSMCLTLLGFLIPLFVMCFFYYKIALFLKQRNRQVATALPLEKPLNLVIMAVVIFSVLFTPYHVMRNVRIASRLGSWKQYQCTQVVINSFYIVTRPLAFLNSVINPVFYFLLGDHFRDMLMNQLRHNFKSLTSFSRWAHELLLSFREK

[2] = target: T1, succinate receptor 1 (SUCNR1); experiment: cAMP inhibition assay; also DMR, IP1, Ca2+, arrestin-3 and miniG BRET
[3] = target: T1, succinate receptor 1 (SUCNR1); experiment: antagonism at […] of agonist-induced IP1, Ca2+, cAMP inhibition, DMR and miniG BRET

SMILES | dynamic mass redistribution, concentration-response [1] | other results
CC(C(=O)O)C(=O)O [methylmalonate] | Metabolite SUCNR1 agonists (malate, oxaloacetate, methylmalonate, itaconate, malonate) showed concentration-dependent responses upon SUCNR1 stimulation | 
O=C(O)CC(=O)C(=O)O [oxaloacetate] | Metabolite SUCNR1 agonists (malate, oxaloacetate, methylmalonate, itaconate, malonate) showed concentration-dependent responses upon SUCNR1 stimulation | 
O=C(O)CC(=O)O [malonate] | Metabolite SUCNR1 agonists (malate, oxaloacetate, methylmalonate, itaconate, malonate) showed concentration-dependent responses upon SUCNR1 stimulation | 
O=C(O)CCC(=O)O [SUC, succinate] |  | EC50 [2]: ~644 nM
O=C(O)CC(O)C(=O)O (centres unmarked) [malate] | Metabolite SUCNR1 agonists (malate, oxaloacetate, methylmalonate, itaconate, malonate) showed concentration-dependent responses upon SUCNR1 stimulation | 
O=C(O)[C@H]1O[C@H]1C(=O)O [CES, cis-epoxysuccinate] |  | EC50 [2]: ~111 nM
CN1CCN(Cc2ccc(-c3cccc(C(=O)Nc4ccccc4CC(=O)O)c3)cc2)CC1 [NF56-EJ40, 2-(2-(4′-((4-methylpiperazin-1-yl)methyl)-[1,1′-biphenyl]-3-carboxamido)phenyl)acetic acid] |  | antagonism at 100 nM of agonist-induced IP1, Ca2+, cAMP inhibition, DMR and mini [3]: NF56-EJ40 also completely inhibited the agonist-induced SUCNR1-mediated IP1 formation and caused a significant shift of the cAMP inhibition curve
C=C(CC(=O)O)C(=O)O [itaconate] | Metabolite SUCNR1 agonists (malate, oxaloacetate, methylmalonate, itaconate, malonate) showed concentration-dependent responses upon SUCNR1 stimulation | 
